Laboratory results reported in patent US8367727B2, “Method of using abscisic acid to treat diseases and disorders” (priority 2006, dated 2013).

Tests used:
[1] = system: PPAR γ and PPAR γ-responsive genes in WAT; assay: Quantitative real-time RT-PCR of white adipose tissue (WAT) of db/db mice; format: in vivo
Description: Complementary DNA (cDNA) concentrations for β-actin, PPAR γ, PPAR α, PPAR δ, adiponectin, CD36, aP2, and TNF-α were examined by real-time quantitative PCR using and iCycler IQ System and the iQ SYBR green supermix (Bio-Rad). SYBR green I is a general double-stranded DNA intercalating dye and, therefore, may detect nonspecific products and primer/dimers in addition to the amplicon of interest. In order to determine the number of products produced during the real-time PCR, a melting curve analysis was performed on each product. Real-time PCR was used to measure the starting amount of nucleic acid of each unknown sample of cDNA on the same 96-well plate. Results are presented as starting quantity of cDNA (picograms) per microgram of mRNA.

[2] = system: adipose tissue macrophages (ATM); assay: Flow cytometry of adipose tissue macrophage subsets in stromal-vascular fraction of WAT, db/db mice; format: in vivo
[3] = system: immune cell populations in blood and MLN; assay: Immunophenotyping of blood and mesenteric lymph nodes by flow cytometry after DSS challenge; format: in vivo, mice
Procedure: MLNs were excised and crushed with frosted slides, washed with PBS, and resuspended in PBS and enumerated with a Coulter Counter (Beckman Coulter, Fullerton, Calif.). MLN-derived cells (2×10^5 cells/well) or whole blood (10 μL/well) were seeded onto 96-well plates, centrifuged at 4° C. at 3000 rpm for 4 minutes, and washed with PBS containing 5% serum and 0.09% sodium azide (FACS buffer). […] For lymphocyte assessment, cells were incubated with anti-CD4-Alexa Fluor 700 (2 μg/mL; BD Pharmingen), anti-CD8-PerCp-Cy5.5 (2 μg/mL, eBioscience), CD3 PE-Cy5 (2 μg/mL; BD Pharmingen), anti-CD25-FITC (BD), anti-CTLA-4 FITC (BD), or anti-FoxP3-PE (2 μg/mL, eBioscience) as previously shown (77). Flow results were computed with a BD LSR II flow cytometer and data analyses was performed with FACS Diva software (BD).

[4] = Body weight, organ weights and feed intake of db/db mice; format: in vivo
Procedure: Experiment 1: mice (n=25) were fed high-fat (>40% energy from fat), isocaloric, isonitrogenous diets containing 0, 100, 200, 400, and 800 mg of a racemic (±) ABA mixture/kg diet for 36 days (Table 1) (Sigma). These doses were chosen based on the standard concentrations of TZDs utilized in the treatment of NIDDM. The mice were weighed and their food intake was recorded daily. On day 36 of the study fasted mice (12 h) were bled through the caudal vein and fasting blood glucose concentrations were determined. To investigate the ability of ABA to normalize glucose concentrations, an intraperitoneal glucose tolerance test (IPGTT) was performed on day 36 on the fasted mice. Briefly, mice were bled at 0, 10, 25, and 45 minutes following the administration of glucose (2 g/kg) for measurement of plasma glucose levels. […] Weights were recorded for WAT, interscapular brown adipose tissue (BAT), and liver.
Experiment 2: The ABA dose utilized (100 mg ABA/kg) was based on the results obtained from the IPGTT of the ABA titration study (i.e., Experiment 1). Mice in experiment 2 were fed high-fat diets containing 0 or 100 mg ABA/kg for 36 days. Their body weights and food intake was recorded daily, and blood was collected on day 36 of the study during an IPGTT. This IPGTT included one additional 100 minutes time point. […] Weights were recorded for abdominal WAT, BAT, and liver.

[5] = system: colon inflammatory gene expression; assay: Colon gene expression by real-time quantitative PCR, DSS colitis; format: in vivo, mice
Description: Complementary DNA (cDNA) concentrations for genes of interest were examined by real-time quantitative PCR using an iCycler IQ System and the iQ SYBR green supermix (Bio-Rad). A standard curve was generated for each gene using 10-fold dilutions of purified amplicons starting at 5 pg of cDNA and used later to calculate the starting amount of target cDNA in the unknown samples. SYBR green I is a general double-stranded DNA intercalating dye and may therefore detect nonspecific products and primer/dimers in addition to the amplicon of interest. In order to determine the number of products synthesized during the real-time PCR, a melting curve analysis was performed on each product. Real-time PCR was used to measure the starting amount of nucleic acid of each unknown sample of cDNA on the same 96-well plate. Results are presented as starting quantity of target cDNA (picograms) per microgram of total RNA.

[6] = 100 mg ABA/kg diet, 36 days, P<0.01

## CC1=CC(=O)CC(C)(C)C1(O)/C=C/C(C)=C\C(=O)O (racemic) [ABA, abscisic acid]
[1]; 100 mg ABA/kg diet, 36 days
  mRNA expression of PPAR α or PPAR δ: no significant differences
[1]; [6]
  WAT expression of CD36 mRNA: significant increase
  WAT expression of PPAR γ mRNA: significant increase
[1]; 100 mg ABA/kg diet, 36 days, P<0.02
  WAT expression of aP2 mRNA: significant increase
[1]; 100 mg ABA/kg diet, 36 days, P<0.05
  WAT expression of adiponectin mRNA: significant increase
[1]; ABA-fed db/db mice, P<0.05
  TNF-α mRNA expression in WAT: down-regulated
[2]; P=0.006
  F4/80hi CD11b+CCR2+ ATM subset: reduction
[2]; db/db mice
  F4/80lo ATM: no effect
[2]; db/db mice, P=0.05
  F4/80hi macrophage infiltration into WAT: significantly suppressed
[2]; vs control diet
  amount of F4/80 on surface of F4/80hi macrophages (MFI): significantly lower
[3]; ABA-fed wild-type mice
  CTLA-4 expression on CD4+ T cells in blood: significantly increased
[3]; MLN
  percent of CD4+CD25+FoxP3+ regulatory T cells: significantly increased
[3]; PPAR γ-deficient (CD4cre) mice
  effect on F4/80+CD11b+ monocytes: absent
[3]; lack of PPAR γ (CD4cre mice)
  increase of CTLA-4 expression on CD4+ T cells in blood: abrogated
[3]; wt mice, blood
  F4/80+CD11b+ monocytes: significantly decreased
[4]; 41.34 g vs 43.54 g, not statistically significant
  final body weight less than control mice: approximately 2.2 grams
[4]; between treatment groups
  Total feed intake: did not differ significantly
[4]; db/db mice, 100 mg ABA/kg diet, day 36
  Final body weight: no significant differences in body weights
[5]; ABA-supplementation, DSS
  colonic expression of E-selectin: significantly lowered
  colonic expression of ICAM-1: no affect
  colonic expression of MAdCAM-1: significantly lowered
  colonic expression of PECAM-1: no affect
  colonic expression of VCAM-1: significantly lowered
[5]; ABA-treated mice
  colonic IL-6: significantly attenuated levels
  colonic MMP-9: significantly attenuated levels
  colonic iNOS: significantly attenuated levels
[5]; colons of ABA-fed mice
  colonic PPAR γ, CD36 and FABP4 expression: Neither colonic PPAR γ nor its responsive genes CD36, or FABP4 were significantly affected
